Test results published in US6838465B2, “N-acyltetrahydroisoquinoline derivatives” (Banyu Pharmaceutical Co., Ltd., priority 2000, dated 2005).

How the values were obtained:
human OX2 receptor = molecular target: T1, human OX2 receptor (Homo sapiens, UniProt O43614); assay: Inhibition of orexin A-induced increase in intracellular calcium concentration (FLIPR), OX2 receptor expressing CHO-K1 cells; type: cell-based; settings: CHO-K1 cells stably expressing human OX2 receptor; 0.3 nM orexin A; compound added 5 minutes before; fluo-3 AM; read-out: 50% Inhibition concentration, OX2 receptor
T1 construct: expressed in transfected cells
T1 sequence (O43614 1-444): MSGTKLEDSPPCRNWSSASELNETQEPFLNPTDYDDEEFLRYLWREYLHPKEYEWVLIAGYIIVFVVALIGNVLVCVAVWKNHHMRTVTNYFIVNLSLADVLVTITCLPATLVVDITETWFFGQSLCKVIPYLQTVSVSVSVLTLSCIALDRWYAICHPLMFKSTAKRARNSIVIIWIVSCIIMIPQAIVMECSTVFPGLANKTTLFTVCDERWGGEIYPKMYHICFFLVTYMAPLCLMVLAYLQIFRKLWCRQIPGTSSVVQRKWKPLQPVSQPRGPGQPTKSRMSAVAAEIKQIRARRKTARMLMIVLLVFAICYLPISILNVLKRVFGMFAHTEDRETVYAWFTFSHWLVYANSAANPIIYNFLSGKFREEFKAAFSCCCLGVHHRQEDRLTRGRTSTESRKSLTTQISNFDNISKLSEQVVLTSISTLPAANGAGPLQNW
Text: (§1) A cDNA sequence encoding human orexin OX1 receptor or OX2 receptor (see GenBank, accession number AF 041243 and AF 041245) was cloned into the EcoRV-EcoRI site of a mamal expressed plasmid vector pIRESIneo (made by Clontech Laboratories, Inc.) and the PmlI-XbaI site of a mamal expressed plasmid vector pEF/myc/cyto (made by Invitrogen Corp.). The resulting vectors were respectively transfected into Chinese hamster's ovarian cells CHO-K1 (Americam Type Culture Collection, ATCC number CCL-61). Then, cells having resistance to 2 mg/ml of Geneticin (G418, made by Life Technologies, Inc.) were selected to obtain a cell line stably expressing a human OX1 receptor and a cell line stably expressing a human OX2 receptor. The OX1 receptor or OX2 receptor stably expressing cells were made to take up fluo-3, AM (made by Molecualr Probes Inc.), a fluorescent indicator of calcium concentration, and then 0.3 nM of orexin A was added to a suspension of the cells in an assay buffer (Hank's […] salt solution adjusted to pH 7.4 and containing 20 mM HEPES, 0.5% bovine serum albumin and 2.5 mM probenecid), and the change of the intracellular calcium concentration was measured with time lapse using FLIPR (Fluorometric Imaging Plate Reader, made by Molecular Devices Corp.). The effect of a test compound influencing the increase in the intracellular calcium concentration was assayed by adding the test compound in various concentrations to the assay solutions, 5 minutes before the addition of orexin A, and the 50% inhibition concentration (IC50 value) of the test compound against the increase in intracellular calcium concentration caused by the addition of 0.3 nM orexin A was determined (Table 1).

human OX1 receptor = molecular target: T2, human OX1 receptor (Homo sapiens, UniProt O43613); assay: Inhibition of orexin A-induced increase in intracellular calcium concentration (FLIPR), OX1 receptor expressing CHO-K1 cells; type: cell-based; settings: CHO-K1 cells stably expressing human OX1 receptor; 0.3 nM orexin A; compound added 5 minutes before; fluo-3 AM; read-out: 50% Inhibition concentration, OX1 receptor
T2 construct: expressed in transfected cells
T2 sequence (O43613 1-425): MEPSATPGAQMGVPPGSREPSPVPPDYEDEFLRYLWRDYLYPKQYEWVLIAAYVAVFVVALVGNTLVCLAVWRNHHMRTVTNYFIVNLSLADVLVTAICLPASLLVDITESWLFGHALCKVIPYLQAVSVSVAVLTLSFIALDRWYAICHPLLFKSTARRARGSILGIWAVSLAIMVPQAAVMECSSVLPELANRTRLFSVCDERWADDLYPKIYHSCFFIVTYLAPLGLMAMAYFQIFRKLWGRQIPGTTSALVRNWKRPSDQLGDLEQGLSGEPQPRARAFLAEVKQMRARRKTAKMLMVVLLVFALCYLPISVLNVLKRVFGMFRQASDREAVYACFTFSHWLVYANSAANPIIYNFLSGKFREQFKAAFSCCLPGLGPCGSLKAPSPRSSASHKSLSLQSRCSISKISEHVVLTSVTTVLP
Text: as §1

Row | IC50 (human OX2 receptor) | IC50 (human OX1 receptor) | SMILES
1 | 0.11 µM | 24 µM | COc1cc2c(cc1OC)CN(C(=O)[C@@H](NCc1ccncc1)C(C)(C)C)CC2 [Example 6, (2S)-2-(N-4-pyridylmethyl)amino-1-(6,7-dimethoxy-1,2,3,4-tetrahydroisoquinolin-2yl)-3,3-dimethylbutan-1-one]
2 | 0.049 µM | 17 µM | COc1cc2c(cc1OC)CN(C(=O)[C@@H](NCc1nccs1)C(C)(C)C)CC2 [Example 8, (2S)-1-(6,7-dimethoxy-1,2,3,4-tetrahydroisoquinolin-2-yl)-3,3-dimethyl-2-((2-thiazolylmethyl)amino)butan-1-one]
3 | 0.14 µM | 4.4 µM | COc1cc2c(cc1OC)CN(C(=O)[C@@H](NCc1cccc(Br)c1)C(C)(C)C)CC2 [Example 23, (2S)-2-(3-bromobenzylamino)-1-(6,7-dimethoxy-1,2,3,4-tetrahydroisoquinolin-2-yl)-3,3-dimethylbutan-1-one]

Row | SMILES | IC50 (human OX2 receptor) | IC50 (human OX1 receptor)
4 | COc1cc2c(cc1OC)CN(C(=O)C(Cc1ccccc1)NC(=O)c1cc(Cl)cc(Cl)c1)CC2 (centres unmarked) [Example 4, N-[2-(6,7-dimethoxy-1,2,3,4-tetrahydroisoquinolin-2-yl)-2-oxo-1-benzylethyl](3,5-dichlorophenyl)carboxyamide] | 0.031 µM | 5.3 µM
